According to PubChem BioAssay AID330 (DTP/NCI, 2004):
Several values for one entry are separate records, joined by “and”; a condition that tells them apart may be missing. Equal values may be shown once. Toxic doses and inconclusive results are not listed. Peptide text beside a SMILES is read from it. * marks the point of attachment. Trt = c1ccc(C(c2ccccc2)(c2ccccc2)*)cc1; Benzhydryl = c1ccc(C(c2ccccc2)*)cc1; Cbz = O=C(OCc1ccccc1)*

System: P388 leukemia ip, CD2F1 mice, survival T/C
Assay: NCI In Vivo Anticancer Drug Screen. Data for tumor model P388 Leukemia (intraperitoneal) in CD2F1 (CDF1) mice
Details: endpoint: median survival time, higher = longer survival
Procedure, shortened: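 Mice carrying the transplanted tumor received test compound or vehicle. Survival was recorded in each group, and the value is the treated-group measurement divided by that of the vehicle-treated control group.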

[1] = dose: 50.0 mg/kg/injection, schedule: Q01DX009 (ip), vehicle: Klucel (hydroxypropylcellulose) (HPC)
[2] = dose: 100.0 mg/kg/injection, schedule: Q01DX009 (ip), vehicle: Klucel (hydroxypropylcellulose) (HPC)
[3] = dose: 200.0 mg/kg/injection, schedule: Q01DX009 (ip), vehicle: Klucel (hydroxypropylcellulose) (HPC)
[4] = dose: 100.0 mg/kg/injection, schedule: Q04DX002 (ip), vehicle: Klucel (hydroxypropylcellulose) (HPC)
[5] = dose: 200.0 mg/kg/injection, schedule: Q04DX002 (ip), vehicle: Klucel (hydroxypropylcellulose) (HPC)
[6] = dose: 60.0 mg/kg/injection, schedule: Q01DX005 (ip), vehicle: saline with Tween-80
[7] = dose: 120.0 mg/kg/injection, schedule: Q01DX005 (ip), vehicle: saline with Tween-80
[8] = dose: 240.0 mg/kg/injection, schedule: Q01DX005 (ip), vehicle: saline with Tween-80
[9] = dose: 100.0 mg/kg/injection, schedule: Q04DX003 (ip), vehicle: Klucel (hydroxypropylcellulose) (HPC)
[10] = dose: 200.0 mg/kg/injection, schedule: Q04DX003 (ip), vehicle: Klucel (hydroxypropylcellulose) (HPC)
[11] = dose: 400.0 mg/kg/injection, schedule: Q04DX003 (ip), vehicle: Klucel (hydroxypropylcellulose) (HPC)

Structure (SMILES): OCC1OC(Oc2ccc3cc(Br)ccc3c2)C(O)C1O (stereo not drawn)
- T/C [1]: 90 % of control
- T/C [2]: 99 % of control
- T/C [3]: 97 % of control

Structure (SMILES): O=C1C(CCl)(CCl)CCC12CNC(Cl)(Cl)C2 (stereo not drawn)
- T/C (dose: 50.0 mg/kg/injection, schedule: Q01DX005 (ip), vehicle: saline with Tween-80): 97 % of control
- T/C (dose: 100.0 mg/kg/injection, schedule: Q01DX005 (ip), vehicle: saline with Tween-80): 97 % of control
- T/C (dose: 200.0 mg/kg/injection, schedule: Q01DX005 (ip), vehicle: saline with Tween-80): 102 % of control

Structure (SMILES): Cc1c2cc(Cl)ccc2c(CSC(=N)N)c2ccc3ccccc3c12
- T/C (dose: 50.0 mg/kg/injection, schedule: Q04DX002 (ip), vehicle: Klucel (hydroxypropylcellulose) (HPC)): 100 % of control
- T/C [4]: 102 % of control
- T/C [5]: 107 % of control

Structure (SMILES): CN(C)C1c2cc(Cl)ccc2-c2c(N)cc(Cl)cc21 (stereo not drawn)
- T/C (dose: 50.0 mg/kg/injection, schedule: Q01DX005 (ip), vehicle: Klucel (hydroxypropylcellulose) (HPC)): 103 % of control
- T/C (dose: 100.0 mg/kg/injection, schedule: Q01DX005 (ip), vehicle: Klucel (hydroxypropylcellulose) (HPC)): 99 % of control
- T/C (dose: 200.0 mg/kg/injection, schedule: Q01DX005 (ip), vehicle: Klucel (hydroxypropylcellulose) (HPC)): 91 % of control

Structure (SMILES): O=C(/C=C/c1ccc(Cl)c(Cl)c1)C1CCCCC1
- T/C [1]: 103 % of control
- T/C [2]: 99 % of control

Structure (SMILES): Clc1ccc(-c2nnc(-c3ccccc3)o2)cc1Cl
- T/C [1]: 112 % of control
- T/C [2]: 105 % of control
- T/C [3]: 112 % of control
- T/C (dose: 400.0 mg/kg/injection, schedule: Q01DX009 (ip), vehicle: Klucel (hydroxypropylcellulose) (HPC)): 100 % of control

Structure (SMILES): O=C1c2c(O)ccc(O)c2C(=O)c2c(NCCN(CCO)Cc3ccccc3)ccc(NCCN(CCO)Cc3ccccc3)c21
- T/C (dose: 0.62 mg/kg/injection, schedule: Q01DX009 (ip), vehicle: saline with Tween-80): 118 % of control
- T/C (dose: 1.25 mg/kg/injection, schedule: Q01DX009 (ip), vehicle: saline with Tween-80): 106 % of control
- T/C (dose: 2.5 mg/kg/injection, schedule: Q01DX009 (ip), vehicle: saline with Tween-80): 97 % of control
- T/C (dose: 5.0 mg/kg/injection, schedule: Q01DX009 (ip), vehicle: saline with Tween-80): 109 % of control
- T/C (dose: 10.0 mg/kg/injection, schedule: Q01DX009 (ip), vehicle: saline with Tween-80): 86 % of control
- T/C (dose: 20.0 mg/kg/injection, schedule: Q01DX009 (ip), vehicle: saline with Tween-80): 103 % of control
- T/C (dose: 40.0 mg/kg/injection, schedule: Q01DX009 (ip), vehicle: distilled water + Tween-80): 101 % of control
- T/C (dose: 40.0 mg/kg/injection, schedule: Q01DX009 (ip), vehicle: saline with Tween-80): 103 % of control
- T/C (dose: 80.0 mg/kg/injection, schedule: Q01DX009 (ip), vehicle: distilled water + Tween-80): 123 % of control
- T/C (dose: 80.0 mg/kg/injection, schedule: Q01DX009 (ip), vehicle: saline with Tween-80): 106 % of control
- T/C (dose: 160.0 mg/kg/injection, schedule: Q01DX009 (ip), vehicle: distilled water + Tween-80): 166 % of control
- T/C (dose: 160.0 mg/kg/injection, schedule: Q01DX009 (ip), vehicle: saline with Tween-80): 163 % of control
- T/C (dose: 320.0 mg/kg/injection, schedule: Q01DX009 (ip), vehicle: distilled water + Tween-80): 194 % of control

Structure (SMILES): O=C1N/C(=C\c2nc3ccccc3s2)c2ccccc21
- T/C (dose: 50.0 mg/kg/injection, schedule: Q01DX009 (ip), vehicle: saline with Tween-80): 96 % of control
- T/C (dose: 100.0 mg/kg/injection, schedule: Q01DX009 (ip), vehicle: saline with Tween-80): 90 % of control
- T/C (dose: 200.0 mg/kg/injection, schedule: Q01DX009 (ip), vehicle: saline with Tween-80): 89 % of control

Structure (SMILES): COC(=O)C(Cc1ccccc1)NC(=O)C(Cc1ccccc1)NC(=O)CNC(=O)C(CSC(c1ccccc1)c1ccccc1)NC(=O)C(CSC(c1ccccc1)(c1ccccc1)c1ccccc1)NC(=O)OCc1ccccc1 (stereo not drawn) (Cbz-C(Trt)C(Benzhydryl)GFF-OMe; configuration not given here)
- T/C [4]: 88 % of control
- T/C [5]: 98 % of control
- T/C (dose: 400.0 mg/kg/injection, schedule: Q04DX002 (ip), vehicle: Klucel (hydroxypropylcellulose) (HPC)): 98 % of control

Structure (SMILES): CCCCN(CCCC)CCC(O)c1cc(-c2ccc(C(F)(F)F)cc2)nc(C(F)(F)F)c1 (stereo not drawn)
- T/C (dose: 6.25 mg/kg/injection, schedule: Q01DX009 (ip), vehicle: saline with Tween-80): 89 % of control
- T/C (dose: 12.5 mg/kg/injection, schedule: Q01DX009 (ip), vehicle: saline with Tween-80): 94 % of control
- T/C (dose: 25.0 mg/kg/injection, schedule: Q01DX009 (ip), vehicle: saline with Tween-80): 110 % of control

Structure (SMILES): CC(=O)NC1=C(N2CC2C)C(=O)C(NC(C)=O)=C(N2CC2C)C1=O (stereo not drawn)
- T/C (dose: 1.78 mg/kg/injection, schedule: Q01DX009 (ip), vehicle: saline): 122 % of control
- T/C (dose: 2.66 mg/kg/injection, schedule: Q01DX009 (ip), vehicle: saline): 160 % of control
- T/C (dose: 4.0 mg/kg/injection, schedule: Q01DX009 (ip), vehicle: saline): 163 % of control
- T/C (dose: 6.0 mg/kg/injection, schedule: Q01DX009 (ip), vehicle: saline): 210 % of control

Structure (SMILES): C=C1C[C@]23C[C@@]1(O)CC[C@H]2[C@@]12C=C[C@@H](O1)C(C(=O)OCC)=C2[C@@H]3O
- T/C (dose: 3.75 mg/kg/injection, schedule: Q01DX005 (ip), vehicle: saline): 109 % of control
- T/C (dose: 7.5 mg/kg/injection, schedule: Q01DX005 (ip), vehicle: saline): 100 % of control
- T/C (dose: 15.0 mg/kg/injection, schedule: Q01DX005 (ip), vehicle: Klucel (hydroxypropylcellulose) (HPC)): 97 % of control
- T/C (dose: 15.0 mg/kg/injection, schedule: Q01DX005 (ip), vehicle: saline): 107 % of control
- T/C (dose: 60.0 mg/kg/injection, schedule: Q01DX005 (ip), vehicle: Klucel (hydroxypropylcellulose) (HPC)): 117 % of control

Structure (SMILES): COc1ccc2c(N3CCN(C(=O)C(Cl)(Cl)Cl)CC3)cc(C)nc2c1
- T/C [6]: 103 % of control
- T/C [7]: 104 % of control
- T/C [8]: 102 % of control

Structure (SMILES): CCOc1ccc2c(c1)C(C)=CC(C)(C)N2
- T/C [9]: 99 % of control
- T/C [10]: 102 % of control
- T/C [11]: 102 % of control

Structure (SMILES): OCCCCP12(OC(C(F)(F)F)(C(F)(F)F)c3ccccc31)OC(C(F)(F)F)(C(F)(F)F)c1ccccc12
- T/C [1]: 102 % of control
- T/C [2]: 100 % of control
- T/C [3]: 102 % of control

Structure (SMILES): CN1CCC/C1=C\C(=O)c1ccc([N+](=O)[O-])cc1
- T/C [9]: 107 % of control
- T/C [10]: 107 % of control
- T/C [11]: 93 % of control

Structure (SMILES): CC1=NCCCN(CCN(C)C)CCCN=C(C)C2CCCC1[N-]2.[Ni+2].[O-][Cl+3]([O-])([O-])O
- T/C (dose: 6.25 mg/kg/injection, schedule: Q01DX001 (ip), vehicle: saline): 100 % of control
- T/C (dose: 12.5 mg/kg/injection, schedule: Q01DX001 (ip), vehicle: saline): 100 % of control
- T/C (dose: 25.0 mg/kg/injection, schedule: Q01DX001 (ip), vehicle: saline): 100 % of control and 102 % of control

Structure (SMILES): c1cc(-c2[nH]c3cc(C4=NCCN4)ccc3c2-c2cc3ccc(C4=NCCN4)cc3[nH]2)ccc1C1=NCCN1
- T/C (dose: 3.12 mg/kg/injection, schedule: Q01DX005 (ip), vehicle: Klucel (hydroxypropylcellulose) (HPC)): 107 % of control
- T/C (dose: 6.25 mg/kg/injection, schedule: Q01DX005 (ip), vehicle: Klucel (hydroxypropylcellulose) (HPC)): 96 % of control
- T/C (dose: 12.5 mg/kg/injection, schedule: Q01DX005 (ip), vehicle: Klucel (hydroxypropylcellulose) (HPC)): 109 % of control

Structure (SMILES): Cc1ccc(S(=O)(=O)/C=C/C(=O)c2cccs2)cc1
- T/C (dose: 100.0 mg/kg/injection, schedule: Q04DX002 (ip), vehicle: saline): 99 % of control
- T/C (dose: 200.0 mg/kg/injection, schedule: Q04DX002 (ip), vehicle: saline): 100 % of control
- T/C (dose: 400.0 mg/kg/injection, schedule: Q04DX002 (ip), vehicle: saline): 107 % of control

Structure (SMILES): CCC1=NO[C@@H](C(=O)OCc2ccccc2)[C@H]1C
- T/C [6]: 113 % of control
- T/C [7]: 103 % of control
- T/C [8]: 95 % of control

Structure (SMILES): O=C(NC1CC1)OCc1c(COC(=O)NC2CC2)c(-c2ccc(Cl)c(Cl)c2)n2c1CCC2
- T/C (dose: 6.25 mg/kg/injection, schedule: Q01DX009 (ip), vehicle: distilled water + Tween-80): 160 % of control
- T/C (dose: 12.5 mg/kg/injection, schedule: Q01DX009 (ip), vehicle: distilled water + Tween-80): 171 % of control and 183 % of control
- T/C (dose: 25.0 mg/kg/injection, schedule: Q01DX009 (ip), vehicle: distilled water + Tween-80): 101 % of control and 206 % of control

Structure (SMILES): CCN(CC)c1ccc([P+](=O)O)cc1
- T/C (dose: 50.0 mg/kg/injection, schedule: Q01DX009 (ip), vehicle: saline): 108 % of control
- T/C (dose: 100.0 mg/kg/injection, schedule: Q01DX009 (ip), vehicle: saline): 100 % of control
